Assay results reported in ChEMBL document CHEMBL5727982, “Inhibitors of cyclin-dependent kinase 7 (CDK7)” (2020).
pIC50: −log10 of the molar value.

Molecular target: Cyclin-dependent kinase 7/ cyclin H (Homo sapiens, UniProt P50613)
Assay: In Vitro Kinase Assay: In vitro kinase assays with immunoprecipitated proteins (or recombinant CAK complexes) were performed as follows. Kinase reactions were performed in 25 μL of final volume of reaction buffer (50 mM Hepes, pH 7.5, 150 mM NaCl, 10 mM MgCl2, 5% glycerol, 25 μM ATP, and 10 μCi of [γ-32P]ATP). Each reaction contained 1 μg of RNAP II. Incubation was at 30° C. for 30-45 min. Reactions were terminated by addition of 5 μL of 5×SDS-PAGE sample buffer and incubated at 95° C. for 5 min. Reactions were analyzed by SDS-PAGE, and the dried gel was exposed to film or PhosphorImager plate.
Assay type: protein-complex assay

Cyclin-dependent kinase 7/ cyclin H, sequence (P51946 whole entry): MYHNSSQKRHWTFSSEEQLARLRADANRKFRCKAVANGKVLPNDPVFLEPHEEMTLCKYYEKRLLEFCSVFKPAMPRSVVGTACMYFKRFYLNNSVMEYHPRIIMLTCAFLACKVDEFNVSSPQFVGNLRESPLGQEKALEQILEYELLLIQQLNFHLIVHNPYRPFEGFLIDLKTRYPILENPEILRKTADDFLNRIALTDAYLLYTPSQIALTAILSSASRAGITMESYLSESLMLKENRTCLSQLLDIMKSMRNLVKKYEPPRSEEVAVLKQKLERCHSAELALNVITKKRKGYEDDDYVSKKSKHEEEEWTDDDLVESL
Cyclin-dependent kinase 7/ cyclin H, sequence (P50613 whole entry): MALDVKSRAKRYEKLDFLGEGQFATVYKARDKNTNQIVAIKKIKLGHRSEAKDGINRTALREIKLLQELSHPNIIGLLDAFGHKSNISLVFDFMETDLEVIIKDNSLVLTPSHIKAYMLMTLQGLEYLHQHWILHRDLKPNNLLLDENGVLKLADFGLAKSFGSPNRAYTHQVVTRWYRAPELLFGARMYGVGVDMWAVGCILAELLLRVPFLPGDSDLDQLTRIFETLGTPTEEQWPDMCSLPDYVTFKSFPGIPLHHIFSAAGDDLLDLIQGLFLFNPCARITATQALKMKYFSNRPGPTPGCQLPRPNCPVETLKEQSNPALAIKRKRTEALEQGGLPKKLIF

pIC50: > 7.00
Compound: CN(C)C/C=C/C(=O)Nc1ccc(S(=O)(=O)Nc2cccc(Nc3ncc(Cl)c(-c4c[nH]c5ccccc45)n3)c2)cc1
